From patent US7078386B2, “Enhancing agent for nerve growth factor production comprising a compound having a coumarin backbone or a compound having a 2-dimethyl chroman backbone” (Takara Bio, Inc., priority 2001, dated 2006)

Legend:
[1] = tested on: L-M cells (ATCC CCL-1.2) from murine fibroblasts; experiment: Enhancing activity for NGF production: NGF concentration in culture medium by enzyme immunoassay; assay type: cell-based; settings: 20 hours culture
Method: (2) The enhancing activity for NGF production was determined for the fraction 10 derived from root portions of Angelica keiskei koidz., of which structure was identified in item (1) of Example 1. L-M cells (ATCC CCL-1.2) from murine fibroblasts were suspended in an M199 medium (manufactured by ICN) containing 0.5% bactopeptone (manufactured by Gibco) so as to have a concentration of 1.5×10^5 cells/ml. The suspension was put in a 96 well plate in an amount of 0.1 ml each well, and the cells were aseptically cultured. After culturing the cells for 3 days, the medium was removed therefrom, and exchanged with an M199 medium containing 0.5% bovine serum albumin (manufactured by Sigma). The fraction 10 derived from root portions of Angelica keiskei koidz. was added as the sample thereto, and the cells were cultured for 20 hours. After the termination of the culture, the concentration of the NGF in the culture medium was assayed by an enzyme immunoassay method (NGF Emax Immuno Assay System, manufactured by Promega). The NGF concentration when added was expressed, assuming that the NGF concentration in the cell culture medium with no addition of the sample is 100%, whereby the enhancing activity for NGF production of the sample was evaluated. The experiment was carried out twice, and an average value was taken. As a result, it was clarified that the fraction 10 derived from root portions of Angelica keiskei koidz., namely 3′-O-β-D-glucopyranoyl khellactone, has an enhancing activity for NGF production.

rat = experiment: Single-dose oral administration toxicity in rat; assay type: in vivo; settings: orally administered, single dose at 1 g/kg of the body weight
Method: No toxicity is found when the above-mentioned effective ingredient usable in the present invention is administered in an amount effective for the exhibition of its action. […] Also, incidence of adverse actions is not found.

SMILES: COc1ccc(C(=O)C=Cc2ccc(O)cc2)c2c1CC(O)C(C)(C)O2 (stereo not drawn) [3-hydroxy-8-[3-(4-hydroxyphenyl)-acryloyl]-5-methoxy-2-dimethyl chroman]
- Amount of NGF Produced ([1]; Table 6, sample 200 μM, no-sample control = 100% (0.668 ng/ml)): 457.7%
- cases of death (rat): no cases of death

SMILES: CC(C)=CCc1c(OC2OC(CO)C(O)C(O)C2O)ccc2ccc(=O)oc12 [Fraction 13-2, 7-O-β-D-glucopyranosyloxy-8-prenyl coumarin]
- Amount of NGF Produced ([1]; Table 2, sample 1.00 mg/ml, no-sample control = 100% (0.053 ng/ml)): 792.1%

SMILES: CC(C)=CCc1cc2ccc(=O)oc2cc1O[C@@H]1O[C@H](CO)[C@@H](O)[C@H](O)[C@H]1O [Fraction 19/20-5, 7-β-D-glucopyranosyloxy-6-prenyl coumarin]
- Amount of NGF Produced ([1]; Table 4, sample 1.00 mg/ml, no-sample control = 100% (0.063 ng/ml)): 487.9%

SMILES: COc1ccc(C(=O)O)c2c1CC(O)C(C)(C)O2 (stereo not drawn) [Fraction 18-4, 8-carboxyl-3-hydroxy-5-methoxy-2-dimethyl chroman]
- Amount of NGF Produced ([1]; Table 3, sample 0.0375 mg/ml, no-sample control = 100% (0.027 ng/ml)): 2510.4%
- cases of death (rat): no cases of death

SMILES: CC1(C)Oc2ccc3ccc(=O)oc3c2C(O)C1OC1OC(CO)C(O)C(O)C1O [Fraction 10, 3′-O-β-D-glucopyranoyl khellactone]
- Amount of NGF Produced ([1]; Table 1, sample 2.00 mg/ml, no-sample control = 100% (0.382 ng/ml)): 565.5%

SMILES: C/C=C(/C)C(=O)OC1c2c(ccc3ccc(=O)oc23)OC(C)(C)C1O[C@@H]1O[C@H](CO[C@@H]2O[C@H](CO)[C@@H](O)[C@H](O)[C@H]2O)[C@@H](O)[C@H](O)[C@H]1O (stereo partly drawn) [Fraction 19/20-6, 4′-O-angeloyl-3′-O-[6-O-(β-D-glucopyranosyl)-β-D-glucopyranosyl]-khellactone]
- Amount of NGF Produced ([1]; Table 5, sample 1.00 mg/ml, no-sample control = 100% (0.063 ng/ml)): 337.7%
- cases of death (rat): no cases of death
